# Test system: 192522-019-R-J2-PDC complex tumor spheroid viability
# Assay: Anticancer human tumor 192522-019-R-J2-PDC patient-derived colon adenocarcinoma cell line growth inhibition [POLQ]
# Details: for IC50: curve of first compound; for viability, T/C: stronger effect = lower value
# Outline: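 Growth inhibition in 3D: complex spheroids (tumor PDC, HUVEC, MSC) treated with POLQ inhibitor combinations; where Cmax unknown, highest tested concentration 10 microM, except SN-38 at 1 microM.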
# [1] = second compound 0.0316 µM, first compound 0.0316 µM
# [2] = second compound 0.0316 µM, first compound 0.1 µM
# [3] = second compound 0.0316 µM, first compound 0.316 µM
# [4] = second compound 0.0316 µM, first compound 1 µM
# [5] = second compound 0.0316 µM, first compound 3.16 µM
# [6] = second compound 0.0316 µM, first compound 10 µM
# [7] = second compound 0.1 µM, first compound 0.0316 µM
# [8] = second compound 0.1 µM, first compound 0.1 µM
# [9] = second compound 0.1 µM, first compound 0.316 µM
# [10] = second compound 0.1 µM, first compound 1 µM
# [11] = second compound 0.1 µM, first compound 3.16 µM
# [12] = second compound 0.1 µM, first compound 10 µM
# [13] = second compound 0.316 µM, first compound 0.0316 µM
# [14] = second compound 0.316 µM, first compound 0.1 µM
# [15] = second compound 0.316 µM, first compound 0.316 µM
# [16] = second compound 0.316 µM, first compound 1 µM
# [17] = second compound 0.316 µM, first compound 3.16 µM
# [18] = second compound 0.316 µM, first compound 10 µM
# [19] = second compound 1 µM, first compound 0.0316 µM
# [20] = second compound 1 µM, first compound 0.1 µM
# [21] = second compound 1 µM, first compound 0.316 µM
# [22] = second compound 1 µM, first compound 1 µM
# [23] = second compound 1 µM, first compound 3.16 µM
# [24] = second compound 1 µM, first compound 10 µM
# [25] = second compound 3.16 µM, first compound 0.0316 µM
# [26] = second compound 3.16 µM, first compound 0.1 µM
# [27] = second compound 3.16 µM, first compound 0.316 µM
# [28] = second compound 3.16 µM, first compound 1 µM
# [29] = second compound 3.16 µM, first compound 3.16 µM
# [30] = second compound 3.16 µM, first compound 10 µM
# [31] = second compound 10 µM, first compound 0.0316 µM
# [32] = second compound 10 µM, first compound 0.1 µM
# [33] = second compound 10 µM, first compound 0.316 µM
# [34] = second compound 10 µM, first compound 1 µM
# [35] = second compound 10 µM, first compound 3.16 µM
# [36] = second compound 10 µM, first compound 10 µM
# 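Note: spheroids exposed to drugs for seven days before reading.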
# 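Throughout, for viability, T/C: 100% = DMSO vehicle control viability in luminescence.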
smiles,measurement,setting,value
O=C(Nc1ccc(O)c(NS(=O)(=O)c2ccc(F)cc2)c1)c1ccc(-c2ccccc2)cc1 + COC1C(OC(N)=O)C(O)C(Oc2ccc3c(O)c(NC(=O)c4ccc(O)c(CC=C(C)C)c4)c(=O)oc3c2C)OC1(C)C,IC50,second compound 0.0316 µM,> 10 µM
same,IC50,second compound 0.1 µM,> 10 µM
same,IC50,second compound 0.316 µM,> 10 µM
same,IC50,second compound 1 µM,> 10 µM
same,IC50,second compound 3.16 µM,> 10 µM
same,IC50,second compound 10 µM,> 10 µM
same,"viability, T/C",[1],109%
same,"viability, T/C",[2],97.3%
same,"viability, T/C",[3],95.8%
same,"viability, T/C",[4],92.1%
same,"viability, T/C",[5],93%
same,"viability, T/C",[6],101%
same,"viability, T/C",[7],105%
same,"viability, T/C",[8],88.9%
same,"viability, T/C",[9],97.5%
same,"viability, T/C",[10],102%
same,"viability, T/C",[11],95.5%
same,"viability, T/C",[12],104%
same,"viability, T/C",[13],103%
same,"viability, T/C",[14],89.6%
same,"viability, T/C",[15],98.3%
same,"viability, T/C",[16],93.5%
same,"viability, T/C",[17],94.7%
same,"viability, T/C",[18],96.6%
same,"viability, T/C",[19],95.7%
same,"viability, T/C",[20],93.3%
same,"viability, T/C",[21],111%
same,"viability, T/C",[22],105%
same,"viability, T/C",[23],95.5%
same,"viability, T/C",[24],94.3%
same,"viability, T/C",[25],104%
same,"viability, T/C",[26],103%
same,"viability, T/C",[27],95.7%
same,"viability, T/C",[28],105%
same,"viability, T/C",[29],108%
same,"viability, T/C",[30],102%
same,"viability, T/C",[31],95.9%
same,"viability, T/C",[32],98.2%
same,"viability, T/C",[33],120%
same,"viability, T/C",[34],97.6%
same,"viability, T/C",[35],113%
same,"viability, T/C",[36],105%
CC(=O)O[C@H]1C(=O)[C@@]2(C)[C@H]([C@H](OC(=O)c3ccccc3)[C@]3(O)C[C@H](OC(=O)[C@H](O)[C@@H](NC(=O)c4ccccc4)c4ccccc4)C(C)=C1C3(C)C)[C@]1(OC(C)=O)CO[C@@H]1C[C@@H]2O + Cc1cccc(N(C)C(=O)C2C(O)CCN2c2nc(C)cc(C(F)(F)F)c2C#N)c1,IC50,second compound 0.0316 µM,> 3 µM
same,IC50,second compound 0.1 µM,> 3 µM
same,IC50,second compound 0.316 µM,> 3 µM
same,IC50,second compound 1 µM,> 3 µM
same,IC50,second compound 3.16 µM,> 3 µM
same,IC50,second compound 10 µM,> 3 µM
same,"viability, T/C","second compound 0.0316 µM, first compound 0.00949 µM",90%
same,"viability, T/C","second compound 0.0316 µM, first compound 0.03 µM",69.4%
same,"viability, T/C","second compound 0.0316 µM, first compound 0.0949 µM",52.2%
same,"viability, T/C","second compound 0.0316 µM, first compound 0.3 µM",59%
same,"viability, T/C","second compound 0.0316 µM, first compound 0.949 µM",56.8%
same,"viability, T/C","second compound 0.0316 µM, first compound 3 µM",54.7%
same,"viability, T/C","second compound 0.1 µM, first compound 0.00949 µM",98.5%
same,"viability, T/C","second compound 0.1 µM, first compound 0.03 µM",74.3%
same,"viability, T/C","second compound 0.1 µM, first compound 0.0949 µM",53.1%
same,"viability, T/C","second compound 0.1 µM, first compound 0.3 µM",64.4%
same,"viability, T/C","second compound 0.1 µM, first compound 0.949 µM",60.4%
same,"viability, T/C","second compound 0.1 µM, first compound 3 µM",57.9%
same,"viability, T/C","second compound 0.316 µM, first compound 0.00949 µM",92.1%
same,"viability, T/C","second compound 0.316 µM, first compound 0.03 µM",79.5%
same,"viability, T/C","second compound 0.316 µM, first compound 0.0949 µM",61.8%
same,"viability, T/C","second compound 0.316 µM, first compound 0.3 µM",58.4%
same,"viability, T/C","second compound 0.316 µM, first compound 0.949 µM",64.3%
same,"viability, T/C","second compound 0.316 µM, first compound 3 µM",62.4%
same,"viability, T/C","second compound 1 µM, first compound 0.00949 µM",102%
same,"viability, T/C","second compound 1 µM, first compound 0.03 µM",84%
same,"viability, T/C","second compound 1 µM, first compound 0.0949 µM",61.1%
same,"viability, T/C","second compound 1 µM, first compound 0.3 µM",60.3%
same,"viability, T/C","second compound 1 µM, first compound 0.949 µM",54.3%
same,"viability, T/C","second compound 1 µM, first compound 3 µM",55.5%
same,"viability, T/C","second compound 3.16 µM, first compound 0.00949 µM",105%
same,"viability, T/C","second compound 3.16 µM, first compound 0.03 µM",79.8%
same,"viability, T/C","second compound 3.16 µM, first compound 0.0949 µM",61.8%
same,"viability, T/C","second compound 3.16 µM, first compound 0.3 µM",59.5%
same,"viability, T/C","second compound 3.16 µM, first compound 0.949 µM",65.8%
same,"viability, T/C","second compound 3.16 µM, first compound 3 µM",57.4%
same,"viability, T/C","second compound 10 µM, first compound 0.00949 µM",94%
same,"viability, T/C","second compound 10 µM, first compound 0.03 µM",67.8%
same,"viability, T/C","second compound 10 µM, first compound 0.0949 µM",58.3%
same,"viability, T/C","second compound 10 µM, first compound 0.3 µM",58.9%
same,"viability, T/C","second compound 10 µM, first compound 0.949 µM",56.8%
same,"viability, T/C","second compound 10 µM, first compound 3 µM",63.3%
COc1cc(C2c3cc4c(cc3C(OC3OC5COC(C)OC5C(O)C3O)C3COC(=O)C23)OCO4)cc(OC)c1O (stereo unspecified) + Cc1cccc(N(C)C(=O)C2C(O)CCN2c2nc(C)cc(C(F)(F)F)c2C#N)c1,IC50,second compound 0.0316 µM,> 10 µM
same,IC50,second compound 0.1 µM,> 10 µM
same,IC50,second compound 0.316 µM,> 10 µM
same,IC50,second compound 1 µM,> 10 µM
same,IC50,second compound 3.16 µM,> 10 µM
same,IC50,second compound 10 µM,> 10 µM
same,"viability, T/C",[1],96.8%
same,"viability, T/C",[2],91.4%
same,"viability, T/C",[3],103%
same,"viability, T/C",[4],86.1%
same,"viability, T/C",[5],64.7%
same,"viability, T/C",[6],68.5%
same,"viability, T/C",[7],103%
same,"viability, T/C",[8],98.8%
same,"viability, T/C",[9],97.1%
same,"viability, T/C",[10],90.1%
same,"viability, T/C",[11],58.6%
same,"viability, T/C",[12],72.1%
same,"viability, T/C",[13],107%
same,"viability, T/C",[14],108%
same,"viability, T/C",[15],96.4%
same,"viability, T/C",[16],93.3%
same,"viability, T/C",[17],65.8%
same,"viability, T/C",[18],68.3%
same,"viability, T/C",[19],108%
same,"viability, T/C",[20],97.6%
same,"viability, T/C",[21],98.9%
same,"viability, T/C",[22],95.7%
same,"viability, T/C",[23],70.5%
same,"viability, T/C",[24],69.3%
same,"viability, T/C",[25],113%
same,"viability, T/C",[26],105%
same,"viability, T/C",[27],102%
same,"viability, T/C",[28],88.5%
same,"viability, T/C",[29],79.9%
same,"viability, T/C",[30],63.1%
same,"viability, T/C",[31],117%
same,"viability, T/C",[32],104%
same,"viability, T/C",[33],105%
same,"viability, T/C",[34],91.6%
same,"viability, T/C",[35],80%
same,"viability, T/C",[36],65.2%

# Reference: PubChem BioAssay AID1963850 (Molecular Pharmacology Branch, DTP, NCI, 2024)
